The results in this text go back to patent US6194437A (Warner-Lambert Company, priority 1999, dated 2001).

Structures are written as SMILES. Bounds are passed on as bounds.

The target in test [1] is T1, cloned human NMB-preferring receptor (BB1) (Homo sapiens, UniProt P28336).
T1 construct: expressed in transfected cells
Briefly: Receptor binding assay, cloned human NMB-preferring receptor (BB1), [125I][Tyr4]bombesin displacement. To be noted: CHO-K1 cell membranes, 60 minutes incubation. The method, then:
(§1) For binding experiments, cells were harvested by trypsinization, and stored frozen at -70° C. in Ham's F12 culture medium containing 5% DMSO until required. On the day of use, cells were thawed rapidly, diluted with an excess of culture medium, and centrifuged for 5 minutes at 2000 g. Cells were resuspended in 50 mM Tris-HCl assay buffer (pH 7.4 at 21° C., containing 0.02% BSA, 40 μg/ml bacitracin, 2 μg/mL chymostatin, 4 μg/mL leupeptin, and 2 μM phosphoramidon), counted, and polytronned (setting 5, 10 sec) before centrifuging for 10 minutes at 28,000 g. The final pellet was resuspended in assay buffer to a final cell concentration of 1.5×10^5 /mL. […] Radioactivity bound was determined using a gamma counter.

In test [2] the target is T2, cloned human NMB-preferring receptors expressed in CHO cells (Homo sapiens, UniProt P28336).
T2 construct: functional calcium (Fura-2) and Cytosensor acidification assays
Kind of test: Measurement of extracellular acidification (CYTOSENSOR) in CHO-NMB cells. It is filed as cell-based. To be noted: NMB-preferring receptor (BB1), antagonist 30 minutes prior to agonist, 37° C. The source says: The compounds of the invention have been tested in in vitro functional assays using cloned human NMB-preferring receptors expressed in CHO cells.
Protocols for functional assays:
2. Measurement of extracellular acidification (CYTOSENSOR)
This acidification rate is detected as a change in potential across a silicon light addressable sensor, during periods of media cessation (McConnell, et al., 1992).
CHO-NMB Cells seeded on polycarbonate microporous capsule cups were placed insensor chambers at 37° C. inside the microphysiometer, and maintained by a flow of nonbuffering Ham's F12 nutrient media (growth media without NaHCO3, pH 7.3-7.4) at approximately 120 μL/min. The flow was halted for 22 seconds at the end of each 2 minute repeated cycle, and the rate of acidification (μ volts/sec) measured for 15 seconds during that period.
Agonists were introduced sequentially every 28 to 30 minutes to the perfusing media, 20 seconds before flow-off periods, and removed after two rate measurements via the automatic valve-switch.
The effects of various antagonists were determined after continuous perfusion 30 minutes prior to, and throughout the application of agonists. All agents were applied at the working pH of the media.

The target of test [3] is T3, cloned human GRP-preferring receptor (BB2) (Homo sapiens, UniProt P30550).
T3 construct: expressed in transfected cells
Kind of test: Receptor binding assay, cloned human GRP-preferring receptor (BB2), [125I][Tyr4]bombesin displacement. To be noted: CHO-K1 cell membranes, 90 minutes incubation. The method, then: as §1, with “The compounds of the invention have been evaluated in receptor binding assays which measure the affinity of the novel compounds in a cloned human NMB-preferring receptor (BB1) assay and in a cloned human GRP-preferring receptor (BB2) assay. Protocol for Binding Assays […] For” for “For”

T1 sequence (P28336 whole entry): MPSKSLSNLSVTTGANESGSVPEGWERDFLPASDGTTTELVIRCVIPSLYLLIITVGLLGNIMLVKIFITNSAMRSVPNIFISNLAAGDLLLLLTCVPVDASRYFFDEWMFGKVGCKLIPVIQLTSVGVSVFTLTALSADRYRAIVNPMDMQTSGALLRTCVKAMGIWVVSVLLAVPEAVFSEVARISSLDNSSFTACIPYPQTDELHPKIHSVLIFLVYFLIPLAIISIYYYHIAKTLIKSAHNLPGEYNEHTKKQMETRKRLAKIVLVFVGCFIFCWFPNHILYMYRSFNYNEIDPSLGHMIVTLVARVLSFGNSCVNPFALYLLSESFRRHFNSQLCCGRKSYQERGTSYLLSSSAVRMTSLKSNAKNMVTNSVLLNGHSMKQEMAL
T3 sequence (P30550 whole entry): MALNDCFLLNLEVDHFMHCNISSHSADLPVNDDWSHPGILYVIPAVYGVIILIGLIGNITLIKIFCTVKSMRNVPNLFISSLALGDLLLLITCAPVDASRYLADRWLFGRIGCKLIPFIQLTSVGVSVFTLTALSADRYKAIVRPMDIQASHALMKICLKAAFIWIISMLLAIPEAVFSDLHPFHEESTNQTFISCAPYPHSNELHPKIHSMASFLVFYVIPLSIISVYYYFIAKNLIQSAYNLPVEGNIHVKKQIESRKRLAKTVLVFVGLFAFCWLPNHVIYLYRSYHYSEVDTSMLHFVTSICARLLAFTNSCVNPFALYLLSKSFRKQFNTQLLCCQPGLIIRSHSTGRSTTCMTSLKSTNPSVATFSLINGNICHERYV
T2 sequence (P28336 whole entry): as the sequence (P28336 whole entry) above

`CC(C)c1cccc(C(C)C)c1NC(=O)NC(C)(Cc1c[nH]c2ccccc12)C(=O)N[C@H]1COC(C)(C)O[C@H]1c1ccccc1` (single isomer, unassigned) [Example 25] displayed a Ki in test [1] of 0.095 µM.
As to `CC(C)c1cccc(C(C)C)c1NC(=O)N[C@](C)(Cc1c[nH]c2ccccc12)C(=O)N[C@H]1CCCc2ccccc21` [Example 2, 2-[3-(2,6-Diisopropyl-phenyl)-ureido]-3-(1H-indol-3-yl)-2-methyl-N-(1,2,3,4-tetrahydro-naphthalen-1-yl)-propionamide], the Ki in test [1] was 0.014 µM; in test [3] it was over 10 µM. The “Acidification Response appKB” value in test [2] is given as 54.3.
For `CC(C)c1cccc(C(C)C)c1NC(=O)N[C@](C)(Cc1c[nH]c2ccccc12)C(=O)N[C@H]1CCc2ccccc21` [Example 3, 2-[3-(2,6-Diisopropyl-phenyl)-ureido]-N-indan-1-yl-3-(1H-indol-3-yl)-2-methyl-propionamide], the Ki in test [1] was 0.13 µM; in test [3], over 10 µM.
The matching figures for `CC(C)c1cccc(C(C)C)c1NC(=O)NC(C)(Cc1c[nH]c2ccccc12)C(=O)NCCC1CCCCC1` (stereo not drawn) [Example 4, N-(2-Cyclohexyl-ethyl)-2-[3-(2,6-diisopropyl-phenyl)-ureido]-3-(1H-indol-3-yl)-2-methyl-propionamide]: 0.215 µM and over 10 µM.
On the same counts, the results for `CC(C)c1cccc(C(C)C)c1NC(=O)NC(C)(Cc1c[nH]c2ccccc12)C(=O)Nc1ccccc1` (stereo not drawn) [Example 5] are 0.942 µM and over 10 µM.
Regarding `CC(C)c1cccc(C(C)C)c1NC(=O)N[C@](C)(Cc1c[nH]c2ccccc12)C(=O)N[C@H]1CCCC[C@H]1c1ccccc1` [Example 6, 2-[3-(2,6-Diisopropyl-phenyl)-ureido]-3-(1H-indol-3-yl)-2-methyl-N-(2-phenyl-cyclohexyl)-propionamide], the Ki in test [1] is 0.783 µM; in test [3], over 10 µM.
As to `CC(C)c1cccc(C(C)C)c1NC(=O)NC(Cc1c[nH]c2ccccc12)C(=O)N(C)CC1CCCCC1` (stereo not drawn) [Example 7, N-Cyclohexylmethyl-2-[3-(2,6-diisopropyl-phenyl)-ureido]-3-(1H-indol-3-yl)-N-methyl-propionamide], the Ki in test [1] was 0.487 µM; in test [3], over 10 µM.
As for `CC(Cc1c[nH]c2ccccc12)(NC(=O)Nc1ccc([N+](=O)[O-])cc1)C(=O)NCC1CCCCC1` (stereo not drawn) [Example 8], the Ki was 0.003 µM in test [1] and 0.45 µM in test [3].
Regarding `CC(Cc1c[nH]c2ccccc12)(NC(=O)Nc1ccc([N+](=O)[O-])cc1)C(=O)NCC1(O)CCCCC1` (stereo not drawn) [Example 9], the Ki in test [1] came to 0.0033 µM; in test [3] it was 1.13 µM.
On to `CC(C)c1cccc(C(C)C)c1NC(=O)N(C)C(Cc1c[nH]c2ccccc12)C(=O)NCC1CCCCC1` (stereo not drawn) [Example 10, N-Cyclohexylmethyl-2-[3-(2,6-diisopropyl-phenyl)-1-methyl-ureido]-3-(1H-indol-3-yl)-propionamide], for which the Ki in test [1] was 0.758 µM; in test [3], 1.46 µM.
The matching figures for `CC(C)c1cccc(C(C)C)c1NC(=O)N[C@@](C)(Cc1c[nH]c2ccccc12)C(=O)NCC1CCCCC1` [Example 11, N-Cyclohexylmethyl-2-[3-(2,6-diisopropyl-phenyl)-ureido]-3-(1H-indol-3-yl)-2-methyl-propionamide]: 0.103 µM and over 10 µM.
The matching figures for `C[C@H](NC(=O)N[C@@](C)(Cc1c[nH]c2ccccc12)C(=O)NCC1(c2ccccn2)CCCCC1)c1ccc([N+](=O)[O-])cc1` [Example 12]: 0.0007 µM and 0.06 µM.
The matching figures for `C[C@@](Cc1c[nH]c2ccccc12)(NC(=O)Nc1ccc(C#N)cc1)C(=O)NCC1(c2ccccn2)CCCCC1` [Example 13]: 0.0003 µM and 0.038 µM.
`C[C@@](Cc1c[nH]c2ccccc12)(NC(=O)Nc1ccc(C(F)(F)F)cc1)C(=O)NCC1(c2ccccn2)CCCCC1` [Example 15]: the values for the Ki in test [1] and in test [3] were 0.002 µM and 0.165 µM, respectively.
For the compound `CCOC(=O)c1ccc(NC(=O)N[C@@](C)(Cc2c[nH]c3ccccc23)C(=O)NCC2(c3ccccn3)CCCCC2)cc1` [Example 16], the Ki is 0.003 µM in test [1] and 0.14 µM in test [3].
The matching figures for `COc1cccc(OC)c1NC(=O)NC(C)(Cc1c[nH]c2ccccc12)C(=O)NCC1CCCCC1` (stereo not drawn) [Example 17, N-Cyclohexylmethyl-2-[3-(2,6-dimethoxy-phenyl)ureido]-3-(1H-indol-3-yl)-2-methyl-propionamide]: 3.31 µM and 2.94 µM.
Turning to `CC(C)c1cccc(C(C)C)c1NC(=O)[C@H](Cc1c[nH]c2ccccc12)NC(=O)NC(c1ccccc1)C(C)(C)C` (stereo partly drawn) [Example 18, (S)-N-(2,6-Diisopropyl-phenyl)-2-[3-(2,2-dimethyl-1-phenyl-propyl)-ureido]-3-(1H-indol-3-yl)-propionamide], the Ki in test [1] was 0.025 µM; in test [3], over 10 µM.
The matching figures for `CC(C)c1cccc(C(C)C)c1NC(=O)NC(C)(Cc1cccc[n+]1[O-])C(=O)NCC1(c2ccccn2)CCCCC1` (stereo not drawn) [Example 19, 2-[3-(2,6-Diisopropyl-phenyl)-ureido]-2-methyl-3-(1-oxy-pyridin-2-yl)-N-(1-pyridin-2-yl-cyclohexylmethyl)-propionamide]: 0.003 µM and 0.762 µM.
The matching figures for `CC(C)c1cccc(C(C)C)c1NC(=O)NC(C)(Cc1ccccc1C(F)(F)F)C(=O)NCC1(c2ccccn2)CCCCC1` (stereo not drawn) [Example 20]: 0.033 µM and over 10 µM.
The matching figures for `CC(C)c1cccc(C(C)C)c1NC(=O)NC(C)(Cc1ccccc1[N+](=O)[O-])C(=O)NCC1(c2ccccn2)CCCCC1` (stereo not drawn) [Example 21]: 0.02 µM and 2.55 µM.
Consider `CC(C)c1cccc(C(C)C)c1NC(=O)NC(C)(Cc1ccccn1)C(=O)NCC1(c2ccccn2)CCCCC1` (stereo not drawn) [Example 22, 2-[3-(2,6-Diisopropyl-phenyl)-ureido]-2-methyl-3-pyridin-2-yl-N-(1-pyridin-2-yl-cyclohexylmethyl)-propionamide], for which the results for the Ki in test [1] and in test [3] were 0.035 µM and 0.589 µM, respectively.
For the compound `CC(C)c1cccc(C(C)C)c1NC(=O)NC(Cc1c[nH]cn1)C(=O)NCC1(c2ccccn2)CCCCC1` (stereo not drawn) [Example 23], the Ki in test [1] stood at 0.016 µM; in test [3], 5.36 µM.
On the same counts, the results for `CC(C)c1cccc(C(C)C)c1N(C)C(=O)NC(C)(Cc1c[nH]c2ccccc12)C(=O)NCC1CCCCC1` (stereo not drawn) [Example 24] are 0.413 µM and over 10 µM.
Consider `Cc1nc(C2(CNC(=O)C(C)(Cc3c[nH]c4ccccc34)NC(=O)Nc3ccc([N+](=O)[O-])cc3)CCCCC2)cs1` (stereo not drawn) [Example 26], for which the results for the Ki in test [1] and in test [3] were 0.00025 µM and 0.029 µM, respectively.
For the compound `COc1ccc(C2(CNC(=O)C(C)(Cc3c[nH]c4ccccc34)NC(=O)Nc3ccc([N+](=O)[O-])cc3)CCCCC2)nc1` (stereo not drawn) [Example 27], in test [3], the Ki amounted to 0.001 µM.
Turning to `CN(C)Cc1ccc(C2(CNC(=O)C(C)(Cc3c[nH]c4ccccc34)NC(=O)Nc3ccc([N+](=O)[O-])cc3)CCCCC2)cc1` (stereo not drawn) [Example 28], the Ki is 0.00081 µM in test [1] and 0.079 µM in test [3].
`CC(Cc1c[nH]c2ccccc12)(NC(=O)Nc1ccc([N+](=O)[O-])cc1)C(=O)NCC(c1ccccc1)N1CCCCC1` (stereo not drawn) [Example 29]: the Ki in test [1] was 0.01 µM; in test [3], over 10 µM.
The matching figures for `CC(Cc1c[nH]c2ccccc12)(NC(=O)Nc1ccc([N+](=O)[O-])cc1)C(=O)NCC1(c2c[nH]cn2)CCCCC1` (stereo not drawn) [Example 31]: 0.00017 µM and 0.021 µM.
As to `COc1ccc(C2(CNC(=O)C(C)(Cc3c[nH]c4ccccc34)NC(=O)Nc3ccc(C#N)cc3)CCCCC2)nc1` (stereo not drawn) [Example 32], the results for the Ki in test [1] and in test [3] were 0.00017 µM and 0.02 µM, respectively.

What is called Ki is the equilibrium dissociation constant of an inhibitor or competing ligand from its target. Low readings indicate a stronger hold on the target, high ones a looser hold on the target.
